The values that follow come from US20130012577A1, “PROCESS TO OBTAIN A STANDARDIZED EXTRACT OF QUERCETIN AND 3-O-METHYLQUERCETIN FROM INFLORESCENCES OF MACELA-DO-CAMPO, A COSMETIC, PHARMACEUTICAL AND VETERINARY COMPOSITION CONTAINING EXTRACT OF MACELA-DO-CAMPO, THE USE OF THIS EXTRACT AND THE METHOD OF APPLICATION OF THE AFORESAID EXTRACT” (priority 2009, published 2013).

The IC50 is the concentration that inhibits the measured activity by half. As usually defined, the MIC is the lowest concentration that inhibits growth of the organism. Lower therefore signals greater potency.

In assay [1] the target is PDE 5A (Homo sapiens, UniProt O76074). The note with it: cited from earlier work.
In assay [2] the test system is Propionibacterium acnes. Kind of assay: Minimum Inhibitory Concentration (MIC), microplate dilution. The format is cell-based. The settings on record: Cutibacterium acnes, anaerobiosis, 35° C., 96 hours, mg/ml of sample. How it is done: Tests were carried out for evaluating the minimum inhibitory concentrations of 3 batches of the dried extract of inflorescences of macela-do-campo produced in accordance with the process of the present invention against Propionibacterium acnes.
The procedure used for this test is the following:
Preparation of inoculum: the microorganism to be used in testing was replicated to a glass flask containing 10 ml of sterilized culture medium broth (TSB); • the flaks were incubated at 35° C.+/−2° C. for 24 hours; • the above procedure was repeated for 2 consecutive days; • 100 microliters of TSB broth were distributed in a microplate with the exception of column 1; • column 1 was inoculated with 200 microliters of the sample to be tested previously prepared and solubilized; • dilutions were carried out by transferring 100 microliters of column 1 to column 2 and 100 microliters of column 2 to column 3 and thus successively until column 10. […] The plate in which Propionibacterium acnes was inoculated was incubated under anaerobosis at 35° C.+/−2° C. for 96 hours; • after the incubation period the reading was carried out, thus observing the turbidity of the wells; • the samples were weighed and diluted in the vehicle ethanol 96° GL/distilled water (1:1) according to the weights and volumes below: […]

Assay [3] deals with smooth muscle of guinea pig corpus cavernosum. The settings on record: cited from earlier work.
The test system of assay [4] is P. acnes. In words: Bioautography of Propionibacterium acnes (HPTLC separation, inoculum overlay). Format: cell-based. The note with it: incubation 72 hours, revealed with TTC. As to the method:
Bioautographic trials were conducted to determine the classes of the compounds present in the extract of inflorescence of Achyrocline satureioides that perform the anti-bacterial activity against Propionibacterium acnes. The bioautography consists of the chromatographic separation of the compounds by HPTLC and the subsequent application of the inoculation to the culture medium over the chromatographic plate.

Assay [5] is described as follows: Antioxidant activity by DPPH. The format is biochemical. As to the method:
Tests were performed for the antioxidant activity by DPPH of the dried extract of macela-do-campo obtained by spray dryer. […] Trolox (a derivative of vitamin E sold by Hoffman LaRoche) was used as a standard of the aforesaid test and has its IC50 of antioxidant activity obtained with 0.005 mg/ml. Therefore, it can be concluded that the dried extract of macela-do-campo has extremely high antioxidant effectiveness, only 4 times less than Trolox.
(In general: The DPPH test is a chemical assay of radical scavenging.)

Assay [6] deals with PDE4. The settings on record: cited from earlier work.
Assay [7] concerns smooth muscle of guinea pig tracheas. The settings on record: guinea pig tracheas precontracted with histamine, carbachol, KCl and forskolin; cited from earlier work.
In assay [8] the test system is PDE3. The note with it: cited from earlier work.

The structures appear in SMILES notation. Converted amounts (≈) assume the structure as drawn.

Take `O=c1c(O)c(-c2ccc(O)c(O)c2)oc2cc(O)cc(O)c12` [quercetin]: in assay [1], the concentration for half-maximal inhibition (IC50) was 1.9 µM. Also, the MIC in assay [2] came to 36.4 µg/mL (≈ 120 µM). Besides, in assay [3], the “relaxant activity in smooth muscle of corpus cavernosum” value was “show the same relaxant activity”. The “anti-microbial activity in bioautography (inhibition halos)” value in assay [4] is listed as “main ingredients responsible for the anti-microbial activity”.
For the molecule `Cc1c(C)c2c(c(C)c1O)CCC(C)(C(=O)O)O2` (centres unmarked) [Trolox], in assay [5], the “IC50 of the antioxidant activity” value came out at 5 µg/mL.
Consider `COc1c(-c2ccc(O)c(O)c2)oc2cc(O)cc(O)c2c1=O` [3-O-methylquercetin], for which the IC50 in assay [6] is 28.5 µM; in assay [1] it was 86.9 µM; in assay [8], 1.6 µM. In assay [7], the “relaxation of smooth muscle of tracheas” value is listed as “capable of provoking the relaxation of the smooth muscle”. Also, the “relaxant activity in smooth muscle of corpus cavernosum” value in assay [3] is listed as “show the same relaxant activity”. Besides, the “anti-microbial activity in bioautography (inhibition halos)” value in assay [4] is recorded as “main ingredients responsible for the anti-microbial activity”.
